Measurements taken from patent publication US20180369327A1, “METHOD FOR TREATING OR PREVENTING OSTEOARTHRITIS” (Dong-A University Research Foundation for Industry-Academy …, priority 2017, published 2018).

Tests used:
[1] = test system: caspase-3 and -7; test: Western blot of apoptosis-related factors (caspase-3 and -7 activation); format: cell-based, rat; details: 30 μM cilostazol, 1.5 mM oleate; n=4
Description: Rat articular chondrocytes for primary culture were isolated from knee joint cartilage slices by enzymatic digestion for 1 h with 0.2% type II collagenase (381 units/mg) in DMEM. After the isolated cells were collected by brief centrifugation, they were resuspended in DMEM supplemented with 10% (v/v) FBS, […] streptomycin and 50 units/ml penicillin (Gibco). The cells were plated on culture dishes at a density of 5×10^4 cells/cm^2. The medium was replaced every 2 days, and they reached confluence after approximately 5 days in culture. In each experiment, the cells from three animals were pooled and analyzed three times. FFA were dissolved in absolute ethanol at a concentration of 500 mM and diluted to final concentrations of FFAs with the appropriate concentration of 1% (w/v) FFA-free BSA. Controls were incubated with equal concentrations of FFA-free BSA containing ethanol. […] Cell (2×10^6) were washed twice with ice-cold PBS. Cells were resuspended in lysis buffer [200 ll of icecold solubilizing buffer (300 mM NaCl, 50 mM Tris-Cl (pH 7.6), 0.5% Triton X-100, protease inhibitor cocktail)] and incubated at 4° C. for 30 min. […] The protein concentrations of the cell lysates were measured with the Bradford protein assay reagent (Bio-Rad). […] Immunostaining with the antibodies was carried out using the Super Signal West Pico enhanced chemiluminescence substrate and detected with LAS-3000PLUS.

[2] = test system: FSP27; test: Immunohistochemistry of cartilage, FSP27-positive cells, HFD-induced OA mouse model; format: in vivo; set-up: reference not given here; details: mice fed HFD, cilostazol 30 mg/kg/day orally 10 weeks; n=10
Description: HFD-induced OA mouse model. Sixty mice were fed a normal chow diet for one week and then mice were fed an HFD or a SD for 25 weeks. Ten mice from each diet were used histologically examine the effect of high fat diet. Forty mice were used to examine the effect of cilostazol. Mice fed a SD or HFD for 15 weeks were orally administered cilostazol at concentrations of 30 mg/kg/day for additional 10 weeks. SD+vehicle mice (n=10) were fed a SD and received DMSO. SD+cilostazol mice (n=10) were fed a SD and received cilostazol. HFD+vehicle mice (n=10) were fed a HFD and received DMSO. HFD+cilostazol mice (n=10) were fed a HFD and received cilostazol. Immunohistochemical observation and analysis. Tissue sections were incubated in 1:70-diluted goat serum solution for 30 minutes at room temperature, and then for 2 hours with 1:100-diluted primary antibody at room temperature. Next, sections were incubated with secondary antibody for 1 hour at 37° C. and developed using ABC complex. […] Histological images were observed and analyzed using a Aperio ScanScope® CS system. Total numbers of positive for […]27 and STAMP2 in four fields per animal were counted by an observer blinded to the experiment and the percentage of positive cells were calculated.

[3] = test system: HFD-induced cartilage destruction; test: HFD-induced OA mouse model, histologic examination of cartilage; format: in vivo; details: mice fed HFD 25 weeks, cilostazol 30 mg/kg/day orally for the last 10 weeks; n=10
Description: All procedures for animal study were approved by the Committee on Animal Investigations at Dong-A University (DIACUC-15-12). Seven-week-old male C57BL/6 mice were obtained from Samtoko (Osan, Korea). Mice were maintained in a temperature-controlled room (22° C.) on a 12:12 h light-dark cycle and free access to water and food. HFD-induced OA mouse model. Sixty mice were fed a normal chow diet for one week and then mice were fed an HFD or a SD for 25 weeks. Ten mice from each diet were used histologically examine the effect of high fat diet. Forty mice were used to examine the effect of cilostazol. Mice fed a SD or HFD for 15 weeks were orally administered cilostazol at concentrations of 30 mg/kg/day for additional 10 weeks. SD+vehicle mice (n=10) were fed a SD and received DMSO. SD+cilostazol mice (n=10) were fed a SD and received cilostazol. HFD+vehicle mice (n=10) were fed a HFD and received DMSO. HFD+cilostazol mice (n=10) were fed a HFD and received cilostazol. Tissue preparation and histologic examination. Animals were killed by ether inhalation. Whole knee joints were removed by dissection, fixed in PBS (pH 7.4) containing 4% paraformaldehyde, decalcified in 12.5% EDTA, dehydrated, and embedded in paraffin blocks. Five-micrometer microsections were prepared and stained with hematoxylin and eosin and with Safranin O-fast green.

[4] = test system: rat articular chondrocytes; test: Total cytosol FFA content measurement; format: cell-based; details: cells treated with 1.6 mM palmitate and 0.4 mM oleate; n=4
Description: Cell were collected after treatment with trypsin (0.2% trypsin, 0.02% EDTA and 0.2% glucose in PBS) and pelleted by centrifugation (200×g for 5 min at 4° C.). Cell pellet was resuspended in ice-cold hypotonic lysis medium containing 20 mM Tris-HCl, pH 7.4 and 1 mM EDTA. Cells were homogenized with a Dounce homogenizer and then centrifuged (800×g for 5 min at 4° C.). The post-nuclear supernatant fraction was ultra-centrifuged ([…] for 5 min at 4° C.) using Beckman Table-top ultracentrifuge. LD fraction with the distinct white band on the preparation was removed with a pipetman and LD-free cytosol was used for FFA measurement. Cytosol FFA levels were measured using a commercial free fatty acid quantification kit from Abcam (ab65341).

O=C1CCc2cc(OCCCCc3nnnn3C3CCCCC3)ccc2N1 [cilostazol]
effect on oleate-induced activation of caspase-3 and -7 [1]: prevented
population of FSP27-positive cells [2]: significantly increased
HFD-induced cartilage destruction [3]: markedly prevented the HFD-induced cartilage destruction
FFA level in the cytosol [4]: significantly decreased the FFA level in the cytosol
